Values of other authors in patent publication US10584074B2, “Microencapsulated nitrification inhibitor compositions” (Dow AgroSciences LLC, priority 2017, dated 2020).

Conditions: at 23° Celsius

With `Clc1cccc(C(Cl)(Cl)Cl)n1` [nitrapyrin, 2-chloro-6-(trichloromethyl)pyridine] as the molecule, how does the vapor pressure read?
The vapor pressure was 2.8×10^−3 mm Hg.
